From US9045488B2, “PAA nanoparticles for tumor treatment and imaging” (Photolitec, LLC, priority 2012, dated 2015)
“Also recorded” adds a separate entry of the source.

Columns and labels:
Colon 26 cancer cells = assay: MTT assay, percent survival of Colon 26 cancer cells with/without light treatment; format: cell-based; conditions: Colon 26 cells, 24 h incubation, no light or light 0.25-2 Joules; relative to the unconjugated compound
Source text: FIG. 3 is a graph showing percent survival of Colon 26 cancer cells relative to concentration in the form of MTT Assay of compound PS815 vs. PS815 conjugated to PAA nanoparticle vs. PS815 both conjugated and post-loaded on PAA nanoparticle without light treatment.
FIG. 4 is a graph showing percent survival of Colon 26 cancer cells relative to concentration in the form of MTT Assay of compound PS815 vs. PS815 conjugated to PAA nanoparticle vs. PS815 both conjugated and post-loaded on PAA nanoparticles. Light treatment was done at 0.25 Joules following 24 h incubation in Colon 26 cells.
FIG. 5 is a graph showing percent survival of Colon 26 cancer cells relative to concentration in the form of MTT Assay of compound PS815 vs. PS815 conjugated to PAA nanoparticle vs. PS815 both conjugated and post-loaded on PAA nanoparticles. Light treatment was done at 0.5 Joules following 24 h incubation in Colon 26 cells.
FIG. 6 is a graph showing percent survival of Colon 26 cancer cells relative to concentration in the form of MTT Assay of compound PS815 vs. PS815 conjugated to PAA nanoparticle vs. PS815 both conjugated and post-loaded on PAA nanoparticles. Light treatment was done at one Joule following 24 h incubation in Colon 26 cells. […]

COLO-26 tumor = assay: In vivo fluorescence imaging, Maestro GNIR-Flex, mice with induced COLO-26 tumor; parameters: species or system Balb/c mice; conditions: 4-48 hours post i.v. 0.47 mmoles/kg; excitation 575-605 nm, emission 645 nm long pass
Source text: The images are color enhanced by computer assignment of color depth relative to fluorescent intensity. Exposure was 100 ms (fluorescence 0 and 8 ms 9 white light). […] The images are color enhanced by computer assignment of color depth relative to fluorescent intensity. […] The images are color enhanced by computer assignment of color depth relative to fluorescent intensity. […] The images are color enhanced by computer assignment of color depth relative to fluorescent intensity.

Substance: 20-carboxyphenyl-2-[1-hexyloxyethyl]-2-devinyl pyropheophorbide-a methyl ester [PS812]
- toxicity to the tumor cells (MTT assay, percent survival), effect of conjugation with nanoparticles (Colon 26 cancer cells): unexpectedly increases toxicity to the cancer cells
- fluorescent image clarity and definition / fluorescence imaging (COLO-26 tumor): unexpectedly superior fluorescent imaging; also recorded: superiority of fluorescence imaging
